Holding throughout (format): in vivo
The subject of experiment [1] is crabgrass, Digitaria horizontalis. Description: Field trial in rice, foliar post-emergence visual weed control: crabgrass. The following applies: DIGHO. Here is the method: (§1) Field trials were conducted in Taiwan, China and Colombia with applications made in the area of naturally occurring weed populations. All treatments were applied using a randomized complete block trial design, with 3 to 4 replications per treatment. Plot size varied and was 1-6 meters×2-12 meters (width×length). Rice was seeded into the plots, and the rice crop was maintained as a normal commercial crop with appropriate fertilizer and maintenance treatments as needed. Rice size at application varied from the 2 to 4 leaf stage, and weeds were at the 2 to 5 leaf stage. All treatments were foliar applied as post-emergence treatments using backpack sprayers with compressed air or carbon dioxide (CO2) propellant. Spray pressure varied from 25 to 35 pounds per square inch (psi). Spray nozzles used were flat fan, with 1 to 4 nozzle booms used to apply from 200 to 450 L/ha of water as spray diluent. All treatments were mixed in water at appropriately formulated product rates to achieve the desired rates as shown based on a unit area of application (hectare). Commercially available products were used to make all applications, consisting of FENCER® 250D and BENGALA® 250D (25 grams active ingredient per liter (g ai/L) penoxsulam in an oil dispersion formulation); GALLANT™ SUPER and VERDICT™ SUPER EC (108 g ai/L haloxyfop-R-methyl in an emulsifiable concentrate formulation); GULLIVER® (500 grams active ingredient per kilograms (g ai/kg) WP (wettable powder)) and NOMINEE® SL (100 g ai/L bispyribac-sodium wettable powder).
(§2) Treatments consisted of haloxyfop-R-methyl and an ALS mode of action herbicide (penoxsulam, bispyribac-sodium, bensulfuron-methyl, or azimsulfuron), applied alone or in combination.
(§3) The treated plots and control plots were rated blind at various intervals after application. Ratings were based on a scale of 0-100%, as discussed above, wherein 0% indicates complete growth of the undesired vegetation and 100% indicates complete prevention of the undesired vegetation.
(§4) Colby's equation was used to determine the herbicidal effects expected from the mixtures, as described above. The results were measured at the evaluation intervals provided in Tables 1-5 after the first application of the compositions. […] The combinations tested, application rates and ratios employed, plant species tested, and results are included in Tables 1-5 below.
(§5) Colby's equation was used to determine the herbicidal effects expected from the mixtures (S. R. Colby, Calculating Synergistic and Antagonistic Responses of Herbicide Combinations, WEEDS 15, p. 22 (1967)). A t-test (alpha=0.05) between Colby predictions and observed combinations was used to test for significant differences indicating synergy or antagonism using replicate data. The results presented in Tables 1-5 were significant according to the described criteria.

For experiment [2], the system named is rice flatsedge, Cyperus iria. Nature of the experiment: Field trial in rice, foliar post-emergence visual weed control: rice flatsedge. To be noted: CYPIR. The procedure: as §1, §2, §3, §4, §5
Experiment [3] deals with itch grass, Rottboellia exaltata. Nature of the experiment: Field trial in rice, foliar post-emergence visual weed control: itch grass. To be noted: ROOEX. Here is the method: as §1, §2, §3, §4, §5
The test system of experiment [4] is bullgrass, Eleusine indica. Description: Field trial in rice, foliar post-emergence visual weed control: bullgrass. The following applies: ELEIN, 7DAA. The procedure: as §1, §2, §3, §4
Colby's equation was used to determine the herbicidal effects expected from the mixtures (S. R. Colby, Calculating Synergistic and Antagonistic Responses of Herbicide Combinations, WEEDS 15, p. 22 (1967)). A t-test (alpha=0.05) between Colby predictions and observed combinations was used to test for significant differences indicating synergy or antagonism using replicate data. […]

The test system of experiment [5] is barnyardgrass, Echinochloa crus-galli. Nature of the experiment: Field trial in rice, foliar post-emergence visual weed control: barnyardgrass. The following applies: ECHCG. Here is the method: as §1, §2, §3, §4, §5
Experiment [6] has as its system monochoria, Monochoria vaginalis. Nature of the experiment: Field trial in rice, foliar post-emergence visual weed control: monochoria. To be noted: MOOVA, 7DAA. Here is the method: as §1, with “Commercially available products were used to make all applications, consisting of FENCER® 250D and BENGALA® 250D (25 grams active ingredient per liter (g ai/L) penoxsulam in an oil dispersion formulation); GALLANT™ SUPER and VERDICT™ SUPER EC (108 g ai/L haloxyfop-R-methyl in an emulsifiable concentrate formulation); GULLIVER® (500 grams active ingredient per kilograms (g ai/kg) WP (wettable powder)) and NOMINEE® SL (100 g ai/L bispyribac-sodium wettable powder).” left out
Colby's equation was used to determine the herbicidal effects expected from the mixtures, as described above. The results were measured at the evaluation intervals provided in Tables 1-5 after the first application of the compositions. […]

Experiment [7] relates to Chinese sprangletop, Leptochloa chinensis. Nature of the experiment: Field trial in rice, foliar post-emergence visual weed control: Chinese sprangletop. The following applies: LEFCH. Here is the method:
as §1, §2, §3, §4, §5

Experiment [8] has as its system small flower flatsedge, Cyperus difformis. Nature of the experiment: Field trial in rice, foliar post-emergence visual weed control: small flower flatsedge. The following applies: CYPDI; for % Visual Weed Control: 7DAA; for Mean % weed control: 14DAA. The procedure:
as §1, §2, §3, §4, §5

Where “and” joins values, the source holds several entries; their conditions need not be identical. Identical values can stand only once.

For the molecule `COC(=O)C(C)Oc1ccc(Oc2ncc(C(F)(F)F)cc2Cl)cc1` [Haloxyfop-methyl (R), haloxyfop-R-methyl], the “Mean % weed control” value amounted to 71.7% in experiment [1] (7DAA, 8 g ai/ha alone); 35.0% in experiment [1] (15DAA, 4 g ai/ha alone); 0.0% in experiment [2] (7DAA, 8 g ai/ha alone); 0.0% in experiment [2] (7DAA, 16 g ai/ha alone); 0.0% in experiment [2] (15DAA, 8 g ai/ha alone); 11.3% in experiment [2] (15DAA, 16 g ai/ha alone). Besides, the “Mean % weed control” value in experiment [3] (7DAA, 8 g ai/ha alone) was found to be 11.7%; in experiment [3] (15DAA, 4 g ai/ha alone) it was 0.0%; in experiment [3] (15DAA, 16 g ai/ha alone), 77.5%; in experiment [3] (28DAA, 4 g ai/ha alone), 0.0%; in experiment [4] (4 g ai/ha alone) it was 21.7%; in experiment [5] (7DAA, 4 g ai/ha alone), 0.0%. The “Mean % weed control” value in experiment [5] (7DAA, 8 g ai/ha alone) is 0.0%; in experiment [5] (7DAA, 27 g ai/ha alone), 0.0%; in experiment [5] (14DAA, 8 g ai/ha alone), 0.0%; in experiment [5] (21DAA, 27 g ai/ha alone), 0.0%; in experiment [5] (28DAA, 4 g ai/ha alone), 0.0%; in experiment [5] (28DAA, 8 g ai/ha alone), 0.0% and 6.7%. Further, the “Mean % weed control” value amounted to 0.0% in experiment [5] (28DAA, 13.5 g ai/ha alone); 0.0% in experiment [5] (28DAA, 27 g ai/ha alone); 0.0% in experiment [6] (16 g ai/ha alone); 0.0% in experiment [7] (7DAA, 8 g ai/ha alone); 0.0% in experiment [7] (14DAA, 2 g ai/ha alone); 0.0% in experiment [7] (14DAA, 4 g ai/ha alone). Moreover, the “Mean % weed control” value in experiment [7] (28DAA, 8 g ai/ha alone) was determined as 0.0%; in experiment [8] (16 g ai/ha alone), 0.0%; in experiment [8] (32 g ai/ha alone), 0.0%. Besides, the “% Visual Weed Control” value in experiment [5] (28DAA, 4 g ai/ha alone (Table 4)) was 0%; in experiment [5] (28DAA, 8 g ai/ha alone (Table 4)) it was 0%; in experiment [8] (2 g ai/ha alone), 0%; in experiment [8] (8 g ai/ha alone) it was 0%.

Regarding `COc1cc(OC)nc(NC(=O)NS(=O)(=O)c2c(-c3nnn(C)n3)cnn2C)n1` [Azimsulfuron, 1-(4,6-dimethoxypyrimidin-2-yl)-3-[1-methyl-4-(2-methyl-2H-tetrazol-5-yl)pyrazol-5-ylsulfonyl]urea], the “Mean % weed control” value was found to be 89.0% in experiment [5] (7DAA, 40 g ai/ha alone); 0.0% in experiment [7] (14DAA, 10 g ai/ha alone); 0.0% in experiment [7] (14DAA, 20 g ai/ha alone).

As for `COc1cc(OC)nc(Oc2cccc(Oc3nc(OC)cc(OC)n3)c2C(=O)O)n1` [Bispyribac-Sodium, bispyribac-sodium], the “Mean % weed control” value in experiment [5] (7DAA, 20 g ai/ha alone) is recorded as 53.3%; in experiment [5] (7DAA, 40 g ai/ha alone), 76.7%; in experiment [5] (14DAA, 20 g ai/ha alone), 35.0%; in experiment [5] (28DAA, 20 g ai/ha alone), 20.0%; in experiment [5] (28DAA, 40 g ai/ha alone) it was 88.3%.

Turning to `COC(=O)c1ccccc1CS(=O)(=O)NC(=O)Nc1nc(OC)cc(OC)n1` [Bensulfuron-Methyl, bensulfuron-methyl], the “% Visual Weed Control” value in experiment [5] (28DAA, 20 g ai/ha alone (Table 4)) came to 0%; in experiment [5] (28DAA, 40 g ai/ha alone (Table 4)), 23%; in experiment [8] (10 g ai/ha alone) it was 90%; in experiment [8] (20 g ai/ha alone) it was 92%.

In the case of `COc1cnc(OC)n2nc(NS(=O)(=O)c3c(OCC(F)F)cccc3C(F)(F)F)nc12` [Penoxsulam], the “Mean % weed control” value in experiment [1] (7DAA, 8 g ai/ha alone) came out at 0.0%; in experiment [1] (7DAA, 16 g ai/ha alone) it was 0.0%; in experiment [1] (15DAA, 8 g ai/ha alone), 0.0%; in experiment [1] (15DAA, 16 g ai/ha alone), 0.0%; in experiment [1] (15DAA, 32 g ai/ha alone), 0.0%; in experiment [2] (7DAA, 8 g ai/ha alone) it was 62.0%. Besides, the “Mean % weed control” value is on record as 87.0% in experiment [2] (7DAA, 32 g ai/ha alone); 85.0% in experiment [2] (15DAA, 8 g ai/ha alone); 3.3% in experiment [3] (7DAA, 32 g ai/ha alone); 0.0% in experiment [3] (15DAA, 8 g ai/ha alone); 0.0% in experiment [3] (28DAA, 8 g ai/ha alone); 12.5% in experiment [3] (28DAA, 16 g ai/ha alone). For the same molecule, the “Mean % weed control” value in experiment [4] (8 g ai/ha alone) is given as 0.0%; in experiment [4] (16 g ai/ha alone) it was 0.0%; in experiment [4] (32 g ai/ha alone), 0.0%; in experiment [5] (7DAA, 10 g ai/ha alone), 63.3%; in experiment [5] (7DAA, 15 g ai/ha alone), 95.7%; in experiment [5] (21DAA, 15 g ai/ha alone) it was 93.3%. Besides, the “Mean % weed control” value came out at 53.3% in experiment [5] (28DAA, 7.5 g ai/ha alone); 56.7% in experiment [5] (28DAA, 10 g ai/ha alone); 91.7% in experiment [5] (28DAA, 15 g ai/ha alone); 98.3% in experiment [5] (28DAA, 30 g ai/ha alone); 90.0% in experiment [6] (5 g ai/ha alone); 0.0% in experiment [7] (7DAA, 10 g ai/ha alone). Moreover, the “Mean % weed control” value in experiment [7] (7DAA, 20 g ai/ha alone) was found to be 0.0%; in experiment [7] (7DAA, 30 g ai/ha alone), 0.0%; in experiment [7] (14DAA, 10 g ai/ha alone), 0.0%; in experiment [7] (14DAA, 20 g ai/ha alone), 0.0%; in experiment [7] (14DAA, 30 g ai/ha alone), 0.0%; in experiment [7] (28DAA, 30 g ai/ha alone), 0.0%. The “Mean % weed control” value in experiment [8] (10 g ai/ha alone) turned out to be 93.3%.

These data come from patent US10624342B2, “Synergistic weed control from applications of haloxyfop and ALS inhibitor herbicides” (priority 2014, dated 2020).
